From PubChem BioAssay AID179 (DTP/NCI, 2004)
Several values for one entry are separate records, joined by “and”; a condition that tells them apart may be missing. Equal entries are not always repeated. Activity calls are given as the source filed them.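 Rule for the calls: active = compounds giving half or more protection of infected cells from virus-caused growth loss, again on retest; inactive = the rest.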

Tested on: CEM cells HIV-1 protection, formazan growth assay
Experiment: NCI AIDS Antiviral Assay
Conditions: for IC50: measured here: growth of uninfected CEM cells
In short: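 Protection of CEM cells against HIV-1 measured as cell growth via soluble formazan read-out, with five concentrations tested on both infected and uninfected cells; failure to protect may reflect toxicity.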

| SMILES | EC50 | IC50 | outcome |
| --- | --- | --- | --- |
| COC(=O)c1cc(=O)n(C)c2ccc(OC)cc12 | > 200 µM | 166 µM |  |
| COc1cc2ccc3c4cc(OC)c(OCc5ccccc5)cc4cnc3c2cc1OC |  |  | inactive |
| Nc1nc2c(C(=O)c3cccs3)nnn2c2cccc(Cl)c12 | > 11.5 µM | > 11.5 µM |  |
| CC(=O)Oc1ccccc1-c1cc2ccccc2oc1=O | > 200 µM | > 100 µM |  |
| COc1cccc(CCNC(=O)CC#N)c1 |  |  | inactive |
| COC(=O)C12C(=O)CC3CCC1C32C(=O)OC (stereo not given) |  |  | inactive |
| C=CCc1c(O)c2ccccc2[nH]c1=O | > 200 µM | > 200 µM |  |
| CN(C)CCn1nc2n(c(=O)c1=O)CC(=O)N(C)c1ccc(Cl)cc1-2 | > 407 µM | > 407 µM |  |
| C/C=C1\CN2CCC34c5ccccc5N5C(=O)CCC(C1CC23)C54 (stereo not given) | > 42.7 µM | > 42.7 µM |  |
| CC1(C)O[C@@H]2COC(=O)[C@@H]2O1 | > 200 µM | > 200 µM |  |
| O=C(N/N=C/c1c(-c2ccccc2)no[n+]1[O-])N1CCOCC1 | > 100 µM | > 100 µM |  |
| O=c1[nH]c(=O)n(COCCO)c2ccc(Br)cc12 | > 200 µM | > 200 µM |  |
| COc1ccc2c(c1)CCC(OS(=O)(=O)CC13CCC(CC1=O)C3(C)C)C2=O (stereo not given) | > 200 µM | 10.5 µM |  |
| CN1CC(O)C(C(=O)NC23CC4CC(CC(C4)C2)C3)C1 (stereo not given) | > 324 µM | 234 µM |  |
| COC(=O)C(Cc1ccccc1)NC(=O)C(CCCN=C(N)N)NC(=O)OCc1ccccc1 (stereo not given) | > 200 µM | > 200 µM |  |
| COc1cc(/C=C(\OC(C)=O)c2ccc3c(c2)OCO3)cc(OC)c1OC | > 126 µM | 52.5 µM |  |
| O=C(Cc1nc2ccccc2s1)C(=O)Nc1ccc(Cl)cc1Cl |  |  | inactive |
| CCN(CC)CCCCC1CCN(CC(=O)N2c3cc(Cl)ccc3NC(=O)CC2C)CC1 (stereo not given) | > 251 µM | 66.1 µM |  |
| CC(C)C1COC(c2ccc3ccccc3c2-c2c(O[Si](C)(C)C(C)(C)C)ccc3ccccc23)=N1 (stereo not given) | > 7.59 µM | > 7.59 µM |  |
| O=c1cc(NNc2ccc3ccccc3c2)[nH]c(=S)[nH]1 | > 200 µM | 38.9 µM |  |
| Cc1ccc(-c2nc3scc(C)n3n2)cc1 | > 200 µM | 182 µM |  |

| SMILES | EC50 | IC50 | outcome |
| --- | --- | --- | --- |
| CCCC1OC(=O)c2ccccc2S1 (stereo not given) | > 200 µM | > 200 µM |  |
| CN(C)[C@@H]1C(=O)C(C(=O)NCNc2cccc(C(=O)O)c2C(=O)O)=C(O)[C@@]2(O)C(=O)C3=C(O)c4c(O)cccc4[C@@](C)(O)[C@H]3C[C@@H]12 | > 5.89 µM | > 5.89 µM |  |
| COc1cc(/C=C/C(=O)O)ccc1OS(=O)(=O)O | > 200 µM | > 200 µM |  |
| CC1(C)CCC2(C)N(c3ccccc3)C(=O)ON12 (stereo not given) | > 200 µM | > 200 µM |  |
| Nc1nc(NCCOCP(=O)(O)O)c(C=O)c(=O)[nH]1 | > 200 µM | > 200 µM |  |
| O=c1[nH]c(=O)n(C2CC(O)C(CO)O2)cc1C#Cc1cc(C(F)(F)F)cc(C(F)(F)F)c1 (stereo not given) | > 40.7 µM | > 40.7 µM |  |
| CC12CO[C@@](C)(CC(S(=O)(=O)c3ccccc3)C1)O2 (stereo not given in full) | > 178 µM | > 178 µM |  |
| COc1ccc(O)c2c(=O)ccccc12 |  |  | inactive |
| C#CCOC(=O)C=[N+]=[N-] | > 200 µM | > 200 µM |  |
| CCN1C[C@]2(COC)CCC(O)C34[C@@H]5C[C@@H]6C(OC(C)=O)[C@@H]5[C@](OC(C)=O)(C[C@@H]6OC)[C@@H](C(OC)[C@@H]32)[C@H]14 (stereo not given in full) |  |  | inactive |
| CC(C)(C)OC(=O)NC(Cc1ccccc1)OCc1ccccc1 (stereo not given) | > 200 µM | 45.7 µM |  |
| Cc1cc(Cl)ccc1NC(=O)/C(Cl)=C(/Cl)C(=O)O |  |  | inactive |
| COC1/C=C\OC2(C)Oc3c(C)c(O)c4c(O)c(c(/C=N/N(Cc5ccccc5)C56CC7CC(CC(C7)C5)C6)c(O)c4c3C2=O)NC(=O)/C(C)=C\C=C\C(C)C(O)C(C)C(O)C(C)C(OC(C)=O)C1C (stereo not given) | > 200 µM | 6.92 µM |  |
| Cn1c2ccccc2c2nnc(NCCCO)nc21 | > 200 µM | 148 µM |  |
| Cc1cc(C)nc(NS(=O)(=O)c2ccc(NC(=O)c3cccc4c(NNc5ccc(S(=O)(=O)N=C(N)N)cc5)c5ccccc5nc34)cc2)n1 | > 100 µM | 50.1 µM |  |
| O=C(CNc1ccc(Cl)cc1Cl)Nn1c(-c2ccccc2)nc2ccccc2c1=O | > 200 µM | 10.5 µM |  |
| Cc1ccc(S(=O)(=O)NCNS(=O)(=O)c2ccc(C)cc2)cc1 | > 200 µM | > 200 µM |  |
| C/C(O)=C(\C=N/C(=S)Nc1ccccc1)C(=O)Nc1ccccc1 | > 200 µM | > 200 µM |  |
| CCOc1ccccc1NC(=O)CC(C(=O)OC)C(=O)C(=O)OC (stereo not given) | > 537 µM | > 537 µM |  |
| CSc1c(C(C)=O)c(O)n(-c2ccc(C)cc2)c(=O)c1C#N | > 200 µM | 63.1 µM |  |
| CC1(C)CCCC(C)(C2CCC3(C)C2C(O)CC2C4(C)CCC(O)C(C)(C)C4C(O)CC23C)O1 (stereo not given) |  |  | inactive |

| SMILES | EC50 | IC50 | outcome |
| --- | --- | --- | --- |
| CC(=O)[C@@H]1[C@@H](OC(=O)CCC(C)COC2OC(CO)C(O)C(O)C2O)C[C@H]2[C@@H]3CC=C4C[C@@H](OC5OC(CO)C(OC6OC(C)C(O)C(O)C6O)C(O)C5OC5OC(C)C(O)C(O)C5O)CC[C@]4(C)[C@H]3CC[C@]12C (stereo not given in full) | > 200 µM | > 200 µM |  |
| O=[N+]([O-])c1cc(Br)cc2cc(Cl)cnc12 |  |  | inactive |
| CC1(C)OC(=O)C(=C2CC(c3ccccc3)c3ccccc32)C(=O)O1 (stereo not given) |  |  | inactive |
| Cc1ccc(/C=N/NS(=O)(=O)c2ccccc2)cc1 |  |  | inactive |
| CN1C(=O)OC2OC(C)(c3ccc(S(=O)(=O)c4ccccc4)cc3)C(=O)CC21 (stereo not given) | > 123 µM | > 123 µM |  |
| C=CC1(C)CC(=O)C2(O)C(C)(O1)C(OC(C)=O)C(O)C1C(C)(C)CCC(O)C12C (stereo not given) |  |  | inactive |
| [O-][n+]1nc(N2CCOCC2)nc2ccccc21 | > 200 µM | > 200 µM |  |
| Nn1c(SCc2nc3ccccc3[nH]2)nnc1-c1ccccc1 | > 200 µM | > 200 µM |  |
| COc1cc2c(c(O)c1C)C(=O)CC(c1ccccc1)O2 (stereo not given) | > 35.5 µM | > 35.5 µM |  |
| O=c1sc2ccccc2n1CCSSCCn1c(=O)sc2ccccc21 | > 200 µM | 9.12 µM |  |
| O=C(O)c1ccc(C(c2c(O)c3ccccc3oc2=O)c2c(O)c3ccccc3oc2=O)cc1 | > 200 µM | 191 µM |  |
| CCCCCCCCCCCCCCCC(=O)OC1C(O)C(CO)OC(OC)C1NC(=O)N(CCCl)N=O (stereo not given) | > 12.6 µM | > 12.6 µM |  |
| CN1CC[C@]2(C)c3ccc(O)cc3CC3CCCC1C32C (stereo not given in full) |  |  | inactive |
| BrC/C=C/C[P+](c1ccccc1)(c1ccccc1)c1ccccc1 | > 5.25 µM | 0.603 µM |  |
| S=C1NC(c2ccc(Cl)cc2)N2C(=S)NC(c3ccc(Cl)cc3)N12 (stereo not given) |  |  | inactive |
| C[C@]12CC[C@H](OC(=O)CCC(=O)O)C[C@H]1CC[C@@H]1[C@@H]2CC[C@]2(C)C(c3ccc(=O)oc3)CC[C@]12O (stereo not given in full) | > 0.2 µM | 0.0162 µM |  |
| C=C(C)COc1cc(NC(=S)OC(C)C)ccc1Cl | 0.813 µM | 4.79 µM |  |
| NCC1OC(OC2C(N)CC(N)C(O)C2OC2OC(CO)C(O)C2O)C(N)C(O)C1O (stereo not given) |  |  | inactive |
| COc1ccc(C2COc3c(ccc(OC)c3OC)C2=O)cc1OC (stereo not given) |  |  | inactive |
| O=C(Nc1ccc(C2=NCCN2)cc1)Nc1cc(NC(=O)Nc2ccc(C3=NCCN3)cc2)cc(C(=O)O)c1 | 38.9 µM | > 200 µM |  |
| COc1ccc2nc3cc(Cl)ccc3c(NCCC[N+](C)(C)CCCCCCCCCCCCCCCC[N+](C)(C)CCCNc3c4ccc(Cl)cc4nc4ccc(OC)cc34)c2c1 |  |  | inactive |

| SMILES | EC50 | IC50 | outcome |
| --- | --- | --- | --- |
| OCc1c2c(cc3c1CC1(C3)Cc3cc4c(c(CO)c3C1)CCC4)CCC2 | > 200 µM | 8.13 µM |  |
| COc1cc(OCc2ccc3nc(-c4ccccc4)c(Cl)nc3c2)cc(OC)c1OC | > 200 µM | > 200 µM |  |
| CC(=O)OCC(OC(C)=O)C(OC(C)=O)C(OC(C)=O)C(C=NN(C(C)=O)S(=O)(=O)c1ccc(/C=C2\NC(=O)NC2=O)cc1)OC(C)=O (stereo not given) | > 200 µM | 87.1 µM and 117 µM |  |
| COC(=O)C1C(O)CC(c2ccccn2)N(Cc2ccccc2)C1c1ccccn1 (stereo not given) | > 89.1 µM | 83.2 µM |  |
| Cc1cn(C2CC(OC(c3ccccc3)(c3ccccc3)c3ccccc3)C(CO)O2)c(=O)[nH]c1=O (stereo not given) | > 200 µM | 10.5 µM |  |
| O=C1OCC2=C1C(c1ccc3c(c1)OCO3)c1cc3c(cc1O2)OCO3 (stereo not given) | > 200 µM | 1.66 µM |  |
| Cc1cc(=O)oc2c(O)c(O)ccc12 | > 263 µM | 141 µM |  |
| CC1(C)OCC(COC(=O)C=[N+]=[N-])O1 (stereo not given) | > 200 µM | > 200 µM |  |
| COC(=O)C(Cc1ccccc1)NC(=O)C(CNC(=O)OCc1ccccc1)C(=O)OCc1ccccc1 (stereo not given) | > 200 µM | > 200 µM and 148 µM |  |
| Cc1c(Cl)c(=O)oc2cc(OCC(O)COC(C)C)ccc12 (stereo not given) |  |  | inactive |
| NC(=O)c1csc(C2OC(COP(=O)(O)CP(=O)(O)OCC3OC(n4cnc5c(N)ncnc54)C(O)C3O)C(O)C2O)n1 (stereo not given) | > 151 µM | 91.2 µM |  |
| C=C(CCC(Cl)[C@@H]1COC(/C=C/C)O1)[Si](C)(C)C (stereo not given in full) | > 123 µM | > 123 µM |  |
| COC(=O)c1ccc(/C=C2\CCc3ccccc3C2=O)cc1 | > 200 µM | > 200 µM |  |
| CC(C)NC(=O)/C=C/C=C/c1ccc(Cl)cc1 | > 28.8 µM | > 28.8 µM |  |
| ClCCCN1CCN(CCCl)CC1 | > 832 µM | 21.4 µM |  |
| NC(=O)N/N=C(\CCC(=O)N(Cc1ccccc1)Cc1ccccc1)CC(=O)c1ccc(F)cc1 | > 200 µM | > 200 µM |  |
| CCC(C)/C(=C\C(=O)O)C(=O)O (stereo not given) | > 200 µM | > 200 µM |  |
| CC(C)(C)C1=CC(C)(n2[nH]c(=O)n(-c3ccccc3)c2=O)C=C(C(C)(C)C)C1=O | > 200 µM | 97.7 µM |  |
| CN1C(=O)CC2(C)C1=CCc1scnc12 (stereo not given) | > 200 µM | > 200 µM |  |
| COC(NC(=O)Nc1ccccc1C)(C(F)(F)F)C(F)(F)F | > 200 µM | 57.5 µM |  |
| ON=C1CCCCC(=NO)CCCC1 | > 200 µM | > 200 µM |  |
